The subject of data set [1] is MIA PaCa-2. Nature of the data set: Preferential cytotoxicity against human MIA PaCa-2 cells in nutrient-deprived medium. The class given is functional.
The nature of data set [2]: Toxicity against human MIA PaCa-2 cells in nutrient-rich medium (DMEM). The class given is cell-based.
Data set [3] relates to MIA PaCa-2. The data set is described as follows: Induction of cellular morphology changes in human MIA PaCa-2 cells assessed as rounding of cells and membrane rupture at 6.25 to 10 uM incubated for 24 hrs in nutrient-deprived medium by ethidium bromide-acridine orange double staining based EVOS FL digital microscopy". In kind it is functional, cell-based. The following applies: dose 6.25-10 µM, DDE = dose-dependent effect.

Data set [4] relates to MIA PaCa-2. The data set is described as follows: Induction of cell death in human MIA PaCa-2 cells assessed as rounding of cells and membrane rupture at 5 uM incubated for 24 hrs in nutrient-deprived medium by ethidium bromide-acridine orange double staining based EVOS FL digital microscopy". The class given is functional.
Data set [5] has as its system MIA PaCa-2. The data set is described as follows: Inhibition of cell migration of human MIA PaCa-2 cells assessed as open area level at 20 uM incubated for 24 hrs in nutrient-deprived medium by quantitative real-time cancer cell migration assay (reference value: 100%). In kind it is functional. The arrangement: scale not given: the % may be the effect or the level left.

For data set [6], the system named is MIA PaCa-2. The data set is described as follows: Inhibition of cell migration of human MIA PaCa-2 cells assessed as open area level at 20 uM incubated for 48 hrs in nutrient-deprived medium by quantitative real-time cancer cell migration assay (reference value: 8.9%). In kind it is functional. The arrangement: scale not given: the % may be the effect or the level left.

Data set [7] relates to MIA PaCa-2. Nature of the data set: […] in human MIA PaCa-2 cells assessed as membrane blebbing , cell rupture and leakage of intracellular components into the medium at 20 uM incubated for 24 hrs in nutrient-deprived medium by Hoechst 33342 staining based assay". In kind it is functional.
In data set [8] the test system is MIA PaCa-2. Nature of the data set: Induction of apoptosis in human MIA PaCa-2 cells assessed as down regulation of Bcl2 expression at 10 to 20 uM incubated for 24 hrs in nutrient-deprived medium by Western blot analysis. The class given is functional, cell-based. The following applies: dose 10-20 µM.
Data set [9] concerns MIA PaCa-2. The data set is described as follows: Induction of apoptosis in human MIA PaCa-2 cells assessed as down regulation of Bcl-xL expression at 10 to 20 uM incubated for 24 hrs in nutrient-deprived medium by Western blot analysis. The conditions noted are these: dose 10-20 µM. In kind it is functional, cell-based. (In western blotting, separated proteins are transferred to a membrane and probed.)

Data set [10] has as its system MIA PaCa-2. The data set is described as follows: Induction of apoptosis in human MIA PaCa-2 cells assessed as down regulation of caspase-3 expression at 10 to 20 uM incubated for 24 hrs in nutrient-deprived medium by Western blot analysis. The class given is functional, cell-based. The conditions noted are these: dose 10-20 µM.
The subject of data set [11] is MIA PaCa-2. The data set is described as follows: Inhibition of AKT S473 phosphorylation in human MIA PaCa-2 cells at 10 to 20 uM incubated for 6 hrs in nutrient-deprived medium by Western blot analysis. The class given is cell-based. The conditions noted are these: dose 10-20 µM.
Data set [12] has as its target Serine/threonine-protein kinase mTOR (Homo sapiens) (UniProt P42345). The data set is described as follows: Inhibition of mTOR S2481 phosphorylation in human MIA PaCa-2 cells at 10 to 20 uM incubated for 6 hrs in nutrient-deprived medium by Western blot analysis. The class given is cell-based. The following applies: dose 10-20 µM.
The nature of data set [13]: Effect on total AKt protein level in human MIA PaCa-2 cells at 10 to 20 uM incubated for 6 hrs in nutrient-deprived medium by Western blot analysis. In kind it is toxicity, cell-based. The conditions noted are these: mia paca-2, 6 h, dose 10-20 µM.
Data set [14] is described as follows: Effect on total mTOR protein level in human MIA PaCa-2 cells at 10 to 20 uM incubated for 6 hrs in nutrient-deprived medium by Western blot analysis. In kind it is toxicity, cell-based. The following applies: mia paca-2, 6 h, dose 10-20 µM.
Data set [15] relates to MIA PaCa-2. Nature of the data set: Down regulation of autophagy marker expression in human MIA PaCa-2 cells assessed as reduction in Atg5 expression at 10 to 20 uM in nutrient-deprived medium by Western blot analysis. In kind it is functional, cell-based. The conditions noted are these: dose 10-20 µM.
For data set [16], the system named is MIA PaCa-2. The data set is described as follows: Down regulation of autophagy marker expression in human MIA PaCa-2 cells assessed as reduction in Atg7 expression at 10 to 20 uM in nutrient-deprived medium by Western blot analysis. In kind it is functional, cell-based. The conditions noted are these: dose 10-20 µM.
The test system of data set [17] is MIA PaCa-2. Nature of the data set: Down regulation of autophagy marker expression in human MIA PaCa-2 cells assessed as reduction in Atg12 expression at 10 to 20 uM in nutrient-deprived medium by Western blot analysis. In kind it is functional, cell-based. The conditions noted are these: dose 10-20 µM.
The subject of data set [18] is MIA PaCa-2. The data set is described as follows: Down regulation of autophagy marker expression in human MIA PaCa-2 cells assessed as reduction in LC3-I expression at 10 to 20 uM in nutrient-deprived medium by Western blot analysis. In kind it is functional, cell-based. The conditions noted are these: dose 10-20 µM.
Data set [19] concerns MIA PaCa-2. The data set is described as follows: Down regulation of autophagy marker expression in human MIA PaCa-2 cells assessed as reduction in LC3-II expression at 10 to 20 uM in nutrient-deprived medium by Western blot analysis. The class given is functional, cell-based. The following applies: dose 10-20 µM.

Activity calls are given as the source filed them. No cut-off for these calls is given here.

`C[C@@]1(CO)CCC[C@]2(C)[C@H]3CCC(=O)C=C3CC[C@@H]12` displayed a PC50 in data set [1] of 35.8 µM. In data set [2], the Activity result is recorded as “Non-Toxic”.
On the same counts, the results for `CC(C)c1ccc2c(c1)CC[C@H]1[C@](C)(C(=O)O)CCC[C@]21C` [DEHYDROABIETIC ACID] are 16.9 µM and “Non-Toxic”.
In the same order, the values of `CC(C)[C@@]1(O)C=C2C(=O)C[C@@H]3[C@](C)(CCC[C@@]3(C)C(=O)O)[C@H]2CC1` are 70.7 µM and “Non-Toxic”.
Consider `CC(C)c1ccc2c(c1)CC[C@H]1[C@](C)(CO)CCC[C@]21C` [POMIFERIN A], for which the PC50 in data set [1] stood at 6.6 µM. For the same compound, the Activity result in data set [2] was “Non-Toxic”; in [3], “Dde”; in data set [4] it was 100%; in [5], 64%; in data set [6], 30.8%; in data set [13] it was “Non-Toxic”. Moreover, the Activity entry in data set [14] is reported as “Non-Toxic”. Also, the outcome in data set [7], in [8], in data set [9], in data set [10], in [15] and in [16] was Active. The outcome in data set [17], in data set [18] and in data set [19] was Active. Further, the inhibition entry in data set [11] and in [12] was “Active” throughout.
With `CC(C)[C@]1(O)C=C2C(=O)C[C@@H]3[C@](C)(CCC[C@@]3(C)C(=O)O)[C@H]2CC1`, in data set [1], the PC50 was over 100 µM. In addition, the Activity entry in data set [2] is recorded as “Non-Toxic”.
As to `CC(C)[C@@]1(O)C=C2C(=O)C[C@H]3[C@](C)(COC(=O)CCC(=O)O)CCC[C@]3(C)[C@H]2CC1`, the PC50 in [1] was 82.9 µM. For the same compound, in [2], the Activity entry is reported as “Non-Toxic”.
On the same counts, the results for `CC(C)C1=CC[C@H]2C(=C1)C(=O)C[C@@H]1[C@]2(C)CCC[C@@]1(C)C(=O)O` [ABIESADINE E] are 42.3 µM and “Non-Toxic”.
In data set [1], `COc1cc(C[C@H]2C(=O)OC[C@@H]2Cc2ccc(OC)c(OC)c2)ccc1O` [ARCTIGENIN] gave a PC50 of 0.7 µM. In addition, the Activity entry in data set [2] is recorded as “Non-Toxic”.
In the case of `C=C/C(C)=C\C[C@@H]1[C@@]2(C)CCCC(C)(C)[C@@H]2CC(=O)[C@@]1(C)O`, the PC50 in data set [1] is 15.2 µM. Also, in [2], the Activity result was “Non-Toxic”.
On the same counts, the results for `C[C@]12CCC[C@@](C)(C(=O)O)[C@@H]1CCC1=CC(=O)CC[C@@H]12` are 55.5 µM and “Non-Toxic”.

These data come from ChEMBL document CHEMBL5120816, “Abietane diterpenes from Abies spectabilis and their anti-pancreatic cancer activity against the MIA PaCa-2 cell line” (Bioorg Med Chem Lett, 2022).
